Results: patent US20260028365A1 (BIOGEN MA INC., priority 2022, published 2026)
Counter-ions that a name gives are not always drawn.

Experiments:
[1] = biological target: JH2 domain of human Tyk2 (Homo sapiens (Human), UniProt P29597); assay: JH2 Biochemical Assay (TR-FRET probe displacement); assay type: binding; settings: TR-FRET probe displacement, JH2 domain of human Tyk2
[2] = biological target: Tyk2 (Homo sapiens (Human), UniProt P29597); assay: pSTAT4 Cell Assay (MSD, NK92 cells); assay type: cell-based; settings: MSD
Sequence of Tyk2 (P29597 whole entry): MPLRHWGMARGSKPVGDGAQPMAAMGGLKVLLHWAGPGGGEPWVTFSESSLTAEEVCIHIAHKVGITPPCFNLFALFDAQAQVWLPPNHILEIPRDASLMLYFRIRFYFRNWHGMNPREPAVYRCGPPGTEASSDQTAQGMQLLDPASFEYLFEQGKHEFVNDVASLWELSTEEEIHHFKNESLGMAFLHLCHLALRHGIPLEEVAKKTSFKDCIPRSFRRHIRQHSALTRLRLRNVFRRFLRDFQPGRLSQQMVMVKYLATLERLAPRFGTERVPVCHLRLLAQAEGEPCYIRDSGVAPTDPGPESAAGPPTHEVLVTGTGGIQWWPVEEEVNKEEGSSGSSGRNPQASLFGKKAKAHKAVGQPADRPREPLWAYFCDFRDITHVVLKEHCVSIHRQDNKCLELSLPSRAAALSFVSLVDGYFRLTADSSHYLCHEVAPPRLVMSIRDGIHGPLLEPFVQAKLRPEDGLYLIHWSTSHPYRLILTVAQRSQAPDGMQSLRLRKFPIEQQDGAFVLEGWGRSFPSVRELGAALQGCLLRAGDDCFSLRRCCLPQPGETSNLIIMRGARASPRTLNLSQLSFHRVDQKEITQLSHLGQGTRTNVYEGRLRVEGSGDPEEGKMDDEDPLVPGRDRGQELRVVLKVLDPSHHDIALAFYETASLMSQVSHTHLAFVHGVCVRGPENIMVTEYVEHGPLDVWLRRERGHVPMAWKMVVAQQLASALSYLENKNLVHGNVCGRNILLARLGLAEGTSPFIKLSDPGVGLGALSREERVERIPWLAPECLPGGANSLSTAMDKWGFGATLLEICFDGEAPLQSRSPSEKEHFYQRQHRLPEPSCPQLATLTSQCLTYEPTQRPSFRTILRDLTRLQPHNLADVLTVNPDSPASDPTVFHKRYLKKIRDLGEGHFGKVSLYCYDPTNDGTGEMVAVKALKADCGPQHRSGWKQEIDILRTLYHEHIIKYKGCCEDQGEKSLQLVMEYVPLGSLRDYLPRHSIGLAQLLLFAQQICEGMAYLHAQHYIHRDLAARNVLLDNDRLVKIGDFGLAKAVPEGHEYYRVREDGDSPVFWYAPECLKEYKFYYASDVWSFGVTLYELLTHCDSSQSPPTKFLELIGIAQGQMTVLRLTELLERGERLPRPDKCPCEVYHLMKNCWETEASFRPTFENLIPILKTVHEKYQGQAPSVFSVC

Sequence of JH2 domain of human Tyk2 (P29597 575-876): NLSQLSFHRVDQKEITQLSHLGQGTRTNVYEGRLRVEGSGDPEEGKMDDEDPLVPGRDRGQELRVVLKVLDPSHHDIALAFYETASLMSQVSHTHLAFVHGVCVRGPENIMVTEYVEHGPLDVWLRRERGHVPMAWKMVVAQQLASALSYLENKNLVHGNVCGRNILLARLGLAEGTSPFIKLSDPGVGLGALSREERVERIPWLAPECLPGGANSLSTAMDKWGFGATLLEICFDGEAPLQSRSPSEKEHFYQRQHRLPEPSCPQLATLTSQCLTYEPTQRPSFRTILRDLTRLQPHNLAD

| SMILES | IC50 [1] [nM] | IC50 [2] [nM] |
| --- | --- | --- |
| COCCOc1cnc(NC(C)=O)cc1Nc1cc(C)nc(C(C)CF)n1 (stereo not shown) [Example 82, N-(4-((2-(1-fluoropropan-2-yl)-6-methylpyrimidin-4-yl)amino)-5-(2-methoxyethoxy)pyridin-2-yl)acetamide] | ≤ 10 | 10 to 100 |
| CC(=O)Nc1cc(Nc2cc(C)nc(C(C)(F)F)n2)c(OC(C)C2CC2)cn1 (stereo not shown) [Example 83, N-(5-(1-cyclopropylethoxy)-4-((2-(1,1-difluoroethyl)-6-methylpyrimidin-4-yl)amino)pyridin-2-yl)acetamide] | ≤ 10 | 100 to 1000 |
| CC(=O)Nc1cc(Nc2cc(C)nc(C(C)(F)F)n2)c(OCC2(C#N)CC2)cn1 [Example 84, N-(5-((1-cyanocyclopropyl)methoxy)-4-((2-(1,1-difluoroethyl)-6-methylpyrimidin-4-yl)amino)pyridin-2-yl)acetamide] | ≤ 10 | 10 to 100 |
| CC(=O)Nc1cc(Nc2cc(C)nc(C(C)(F)F)n2)c(OCC2CCO2)cn1 (stereo not shown) [Example 85, N-(4-((2-(1,1-difluoroethyl)-6-methylpyrimidin-4-yl)amino)-5-(oxetan-2-ylmethoxy)pyridin-2-yl)acetamide] | ≤ 10 | 10 to 100 |
| CC(=O)Nc1cc(Nc2cc(C)nc(C(C)(F)F)n2)c(OC2COC2)cn1 [Example 86, N-(4-((2-(1,1-difluoroethyl)-6-methylpyrimidin-4-yl)amino)-5-(oxetan-3-yloxy)pyridin-2-yl)acetamide] | ≤ 10 | 10 to 100 |
| COCCOc1cnc(NC(C)=O)cc1Nc1cncc(C(F)CF)n1 (stereo not shown) [Example 89, N-(4-((6-(1,2-difluoroethyl)pyrazin-2-yl)amino)-5-(2-methoxyethoxy)pyridin-2-yl)acetamide] | 10 to 100 | 10 to 100 |
| C=C(F)c1cncc(Nc2cc(NC(C)=O)ncc2OCCOC)n1 [Example 90, N-(4-((6-(1-fluorovinyl)pyrazin-2-yl)amino)-5-(2-methoxyethoxy)pyridin-2-yl)acetamide] | ≤ 10 | 100 to 1000 |
| CCc1cc(Nc2cc(NC(=O)OC)ncc2OCCN(C)C)nc(C(C)(F)F)n1 [Example 92, methyl (4-((2-(1,1-difluoroethyl)-6-ethylpyrimidin-4-yl)amino)-5-(2-(dimethylamino)ethoxy)pyridin-2-yl)carbamate] | ≤ 10 | 10 to 100 |
| CC(=O)Nc1cc(Nc2cc(OC3CC3)nc(C(C)(F)F)n2)c(OC(F)(F)F)cn1 [Example 93, N-(4-((6-cyclopropoxy-2-(1,1-difluoroethyl)pyrimidin-4-yl)amino)-5-(trifluoromethoxy)pyridin-2-yl)acetamide] | ≤ 10 | 100 to 1000 |
| CCOc1cnc(NC(C)=O)cc1Nc1cc(F)nc(C(C)(F)F)n1 [Example 94, N-(4-((2-(1,1-difluoroethyl)-6-fluoropyrimidin-4-yl)amino)-5-ethoxypyridin-2-yl)acetamide trifluoroacetate] | ≤ 10 | 10 to 100 |
| CCOc1cnc(NC(C)=O)cc1Nc1cc(C)cc(C23COC(C2)C3)n1 [Example 95, N-(4-((6-(2-oxabicyclo[2.1.1]hexan-4-yl)-4-methylpyridin-2-yl)amino)-5-ethoxypyridin-2-yl)acetamide] | 10 to 100 | 100 to 1000 |
| CCOc1cnc(NC(C)=O)cc1Nc1cc(-c2cccnc2)nc(C(C)(F)F)n1 [Example 96, N-(4-((2-(1,1-difluoroethyl)-6-(pyridin-3-yl)pyrimidin-4-yl)amino)-5-ethoxypyridin-2-yl)acetamide] | ≤ 10 | 10 to 100 |
| CCn1cc(-c2cc(Nc3cc(NC(C)=O)ncc3OC)nc(C(C)(F)F)n2)cn1 [Example 97, N-(4-((2-(1,1-difluoroethyl)-6-(1-ethyl-1H-pyrazol-4-yl)pyrimidin-4-yl)amino)-5-methoxypyridin-2-yl)acetamide] | 10 to 100 | 10 to 100 |
| CC(=O)Nc1cc(Nc2cc(C)nc(C(C)(F)F)n2)c(Oc2cncc(C)n2)cn1 [Example 98, N-(4-((2-(1,1-difluoroethyl)-6-methylpyrimidin-4-yl)amino)-5-((6-methylpyrazin-2-yl)oxy)pyridin-2-yl)acetamide] | ≥ 1000 | ≥ 1000 |
| CC(=O)Nc1cc(Nc2cc(C)nc(C(C)(F)F)n2)c(OCC2(F)CC2)cn1 [Example 99, N-(4-((2-(1,1-difluoroethyl)-6-methylpyrimidin-4-yl)amino)-5-((1-fluorocyclopropyl)methoxy)pyridin-2-yl)acetamide] | ≤ 10 | ≤ 10 |
| CC(=O)Nc1cc(Nc2cc(C)nc(C(C)(F)F)n2)c(OCc2ccc(F)cn2)cn1 [Example 125, N-(4-((2-(1,1-difluoroethyl)-6-methylpyrimidin-4-yl)amino)-5-((5-fluoropyridin-2-yl)methoxy)pyridin-2-yl)acetamide] | ≤ 10 | 10 to 100 |

| SMILES | IC50 [1] [nM] | IC50 [2] [nM] |
| --- | --- | --- |
| CC(=O)Nc1cc(Nc2cc(C)nc(C(C)(F)F)n2)c(OCc2cnn(C)c2C)cn1 [Example 138, N-(4-((2-(1,1-difluoroethyl)-6-methylpyrimidin-4-yl)amino)-5-((1,5-dimethyl-1H-pyrazol-4-yl)methoxy)pyridin-2-yl)acetamide] | 100 to 1000 | ≥ 1000 |
| CC(=O)Nc1cc(Nc2cccc(C(C)(F)F)n2)c(OCCO)cn1 [Example 140, N-(4-((6-(1,1-difluoroethyl)pyridin-2-yl)amino)-5-(2-hydroxyethoxy)pyridin-2-yl)acetamide] | ≤ 10 | ≤ 10 |
| CC(=O)Nc1cc(Nc2cc(C)nc(C34CC(CO3)C4)n2)c(-c2ccc(COC(F)F)cn2)cn1 [Example 142, N-(4′-((2-(2-oxabicyclo[2.1.1]hexan-1-yl)-6-methylpyrimidin-4-yl)amino)-5-((difluoromethoxy)methyl)-[2,3′-bipyridin]-6′-yl)acetamide] | ≤ 10 | 10 to 100 |
| CC(=O)Nc1cc(Nc2ccnc(C(C)(F)F)n2)c(-c2ccc3c(n2)OCC(C)(C)O3)cn1 [Example 144, N-(4-((2-(1,1-difluoroethyl)pyrimidin-4-yl)amino)-5-(2,2-dimethyl-2,3-dihydro-[1,4]dioxino[2,3-b]pyridin-6-yl)pyridin-2-yl)acetamide trifluoroacetate] | ≤ 10 | ≤ 10 |
| CC(=O)Nc1cc(Nc2cccc(C(C)(F)F)n2)c(-c2ccn(C)n2)cn1 [Example 147, N-(4-((6-(1,1-difluoroethyl)pyridin-2-yl)amino)-5-(1-methyl-1H-pyrazol-3-yl)pyridin-2-yl)acetamide] | ≤ 10 | ≤ 10 |
| CC(=O)Nc1cc(Nc2cc(C)nc(C(C)(F)F)n2)c(-c2cccc(OC(F)F)n2)cn1 [Example 150, N-(4′-((2-(1,1-difluoroethyl)-6-methylpyrimidin-4-yl)amino)-6-(difluoromethoxy)-[2,3′-bipyridin]-6′-yl)acetamide] | ≤ 10 | ≤ 10 |
| CCC(F)(F)c1cnc(NC(C)=O)cc1Nc1cc(C)nc(C(C)(F)F)n1 [Example 154, N-(4-((2-(1,1-difluoroethyl)-6-methylpyrimidin-4-yl)amino)-5-(1,1-difluoropropyl)pyridin-2-yl)acetamide] | 10 to 100 | ≥ 1000 |
| COc1cc(-c2cnc(NC(C)=O)cc2Nc2cc(C)nc(C(C)(F)F)n2)nc(C)n1 [Example 155, N-(4-((2-(1,1-difluoroethyl)-6-methylpyrimidin-4-yl)amino)-5-(6-methoxy-2-methylpyrimidin-4-yl)pyridin-2-yl)acetamide] | ≤ 10 | 10 to 100 |
| COc1nc(C)cc(-c2cnc(NC(C)=O)cc2Nc2cc(C)nc(C(C)(F)F)n2)n1 [Example 156, N-(4-((2-(1,1-difluoroethyl)-6-methylpyrimidin-4-yl)amino)-5-(2-methoxy-6-methylpyrimidin-4-yl)pyridin-2-yl)acetamide] | ≤ 10 | ≤ 10 |
| CC(=O)Nc1cc(Nc2cc(C)nc(C(C)(F)F)n2)c(-c2ncn(C)n2)cn1 [Example 157, N-(4-((2-(1,1-difluoroethyl)-6-methylpyrimidin-4-yl)amino)-5-(1-methyl-1H-1,2,4-triazol-3-yl)pyridin-2-yl)acetamide] | ≤ 10 | 100 to 1000 |
| CC(=O)Nc1cc(Nc2cccc(C(C)(F)F)n2)c(-c2ccc(=O)n(C)n2)cn1 [Example 158, N-(4-((6-(1,1-difluoroethyl)pyridin-2-yl)amino)-5-(1-methyl-6-oxo-1,6-dihydropyridazin-3-yl)pyridin-2-yl)acetamide] | ≤ 10 | ≤ 10 |
| CC(=O)Nc1cc(Nc2cccc(C(C)(F)F)n2)c(-c2cn(C)c(=O)cn2)cn1 [Example 159, N-(4-((6-(1,1-difluoroethyl)pyridin-2-yl)amino)-5-(4-methyl-5-oxo-4,5-dihydropyrazin-2-yl)pyridin-2-yl)acetamide] | ≤ 10 | 10 to 100 |
| CC(=O)Nc1cc(Nc2cccc(C(C)(F)F)n2)c(-c2ccn(C)c(=O)n2)cn1 [Example 160, N-(4-((6-(1,1-difluoroethyl)pyridin-2-yl)amino)-5-(1-methyl-2-oxo-1,2-dihydropyrimidin-4-yl)pyridin-2-yl)acetamide] | ≤ 10 | ≤ 10 |
| CC(=O)Nc1cc(Nc2cccc(C(C)(F)F)n2)c(-c2cc(=O)n(C)cn2)cn1 [Example 161, N-(4-((6-(1,1-difluoroethyl)pyridin-2-yl)amino)-5-(1-methyl-6-oxo-1,6-dihydropyrimidin-4-yl)pyridin-2-yl)acetamide] | ≤ 10 | 10 to 100 |
| COc1cc(-c2cnc(NC(C)=O)cc2Nc2cccc(C(C)(F)F)n2)ncn1 [Example 162, N-(4-((6-(1,1-difluoroethyl)pyridin-2-yl)amino)-5-(6-methoxypyrimidin-4-yl)pyridin-2-yl)acetamide] | ≤ 10 | ≤ 10 |
| COc1cc(-c2cnc(NC(C)=O)cc2Nc2ccnc(C(C)(F)F)n2)nc(C)n1 [Example 163, N-(4-((2-(1,1-difluoroethyl)pyrimidin-4-yl)amino)-5-(6-methoxy-2-methylpyrimidin-4-yl)pyridin-2-yl)acetamide] | ≤ 10 | 10 to 100 |
